Measured values as given in US9364476B2, “Methods of treating a Bruton's Tyrosine Kinase disease or disorder” (Celgene Avilomics Research, Inc., priority 2011, dated 2016).
Where two headings read alike, the source gives them in different places.

Conditions: for maximum tolerated dose (MTD): dose escalation cohorts, besylate
Description: Intrapatient dose escalation was allowed.
Enrollment for Cohorts 1-5 was not restricted or contingent on the basis of specific B-NHL/CLL/WM diagnosis. […] For example, the physician-investigator may elect to rest a patient due to occurrence or recurrence of adverse events. […] In this context, treatment duration refers to the time a patient is enrolled in the study, inclusive of all rest periods, until treatment is discontinued.
Six (6) subjects diagnosed with CLL and six (6) patients diagnosed with B-NHL were enrolled in each of Cohorts 6A and 6B. Cohorts 6A and 6B were enrolled concurrently, and if meeting the requirements for continued escalation, Cohorts 7A and 7B will be enrolled and evaluated.
Hematologic DLTs included Grade 4 anemia or thrombocytopenia, Grade 4 neutropenia greater than 5 days despite granulocyte colony-stimulating factor (G-CSF) and Grade 3 or higher febrile neutropenia.
Dose escalation will continue until a DLT is observed. […] One key objective for the dose escalation portion of the study was to identify the maximum tolerated dose (MTD) and Optimal Biological Effect dose (OBE). The OBE was defined as: […]

[1] = 5/21 subjects, regardless of dose
[2] = cohort 5, 750 mg QD, initial, through May 22, 2012
[3] = cohorts 1-5 through May 22, 2012

Question: With `C=CC(=O)Nc1cccc(Nc2nc(Nc3ccc(OCCOC)cc3)ncc2F)c1.O=S(=O)(O)c1ccccc1` [N-(3-(5-fluoro-2-(4-(2-methoxyethoxy)phenylamino)pyrimidin-4-ylamino)phenyl)acrylamide besylate] as the compound, how does the “treatment emergent AE: grade 1 or 2 headache” value [1] read?
Answer: Its value is 23.8%.

Question: And the “treatment emergent AE: thrombocytopenia” value [1]?
Answer: Its value is 23.8%.

Question: And the “treatment emergent AE: grade 1 or 2 transient diarrhea” value (15/21 subjects, regardless of dose)?
Answer: The value was 71.4%.

Question: And the “other DLTs” value (besides the follicular lymphoma patient in cohort 3)?
Answer: Its value is “no other DLTs have occurred”.

Question: And the “serious adverse event not related to the study: disseminated Herpes zoster” value (cohort 1)?
Answer: The value was 1 patient.

Question: What about the “serious adverse event not related to the study: pneumonia” value (cohort 1) of the same compound?
Answer: Its value is 1 patient.

Question: And the “incidence of abdominal distension” value (cohort 1, 125 mg QD)?
Answer: The value was 1 patient.

Question: And the “incidence of contusion (bruising)” value (cohort 1, 125 mg QD)?
Answer: Its value is 2 patients.

Question: And the incidence of diarrhea (cohort 1, 125 mg QD)?
Answer: Its incidence of diarrhea is 3 patients.

Question: What about the incidence of dyspepsia (cohort 1, 125 mg QD) of the same compound?
Answer: Its incidence of dyspepsia is 1 patient.

Question: And the incidence of dyspnea (cohort 1, 125 mg QD)?
Answer: The incidence of dyspnea was 1 patient.

Question: And the incidence of fatigue (cohort 1, 125 mg QD)?
Answer: The incidence of fatigue was 2 patients.

Question: What about the incidence of headache (cohort 1, 125 mg QD) of the same compound?
Answer: The incidence of headache was 2 patients.

Question: What about the “incidence of jaw pain” value (cohort 1, 125 mg QD) of the same compound?
Answer: The value was 1 patient.

Question: What about the “incidence of lymph node pain” value (cohort 1, 125 mg QD) of the same compound?
Answer: Its value is 2 patients.

Question: And the “incidence of muscle spasm” value (cohort 1, 125 mg QD)?
Answer: Its value is 1 patient.

Question: And the incidence of nausea (cohort 1, 125 mg QD)?
Answer: Its incidence of nausea is 1 patient.

Question: What about the incidence of pneumonia (cohort 1, 125 mg QD) of the same compound?
Answer: Its incidence of pneumonia is 1 patient.

Question: And the incidence of rash (cohort 1, 125 mg QD)?
Answer: Its incidence of rash is 1 patient.

Question: What about the incidence of sinusitis (cohort 1, 125 mg QD) of the same compound?
Answer: The incidence of sinusitis was 1 patient.

Question: And the incidence of thrombocytopenia (cohort 1, 125 mg QD)?
Answer: Its incidence of thrombocytopenia is 1 patient.

Question: And the “incidence of upper respiratory infection” value (cohort 1, 125 mg QD)?
Answer: The value was 2 patients.

Question: And the incidence of urticaria (cohort 1, 125 mg QD)?
Answer: Its incidence of urticaria is 1 patient.

Question: What about the “incidence of weight loss” value (cohort 1, 125 mg QD) of the same compound?
Answer: The value was 1 patient.

Question: And the “serious adverse event not related to the study: atrial fibrillation” value (cohort 2)?
Answer: Its value is 1 patient.

Question: And the “incidence of abdominal distension” value (cohort 2, 250 mg QD)?
Answer: Its value is 1 patient.

Question: And the incidence of cough (cohort 2, 250 mg QD)?
Answer: Its incidence of cough is 1 patient.

Question: What about the “incidence of decreased diarrhea” value (cohort 2, 250 mg QD) of the same compound?
Answer: Its value is 2 patients.

Question: What about the incidence of dysgeusia (cohort 2, 250 mg QD) of the same compound?
Answer: Its incidence of dysgeusia is 1 patient.

Question: And the incidence of dyspnea (cohort 2, 250 mg QD)?
Answer: Its incidence of dyspnea is 1 patient.

Question: What about the incidence of fatigue (cohort 2, 250 mg QD) of the same compound?
Answer: Its incidence of fatigue is 1 patient.

Question: What about the incidence of nausea (cohort 2, 250 mg QD) of the same compound?
Answer: Its incidence of nausea is 1 patient.

Question: What about the incidence of neutropenia (cohort 2, 250 mg QD) of the same compound?
Answer: The incidence of neutropenia was 1 patient.

Question: What about the incidence of pneumonia (cohort 2, 250 mg QD) of the same compound?
Answer: Its incidence of pneumonia is 1 patient.

Question: What about the “incidence of weight loss” value (cohort 2, 250 mg QD) of the same compound?
Answer: The value was 1 patient.

Question: And the “serious adverse event not related to the study: hematuria/urinary retention” value (cohort 3)?
Answer: The value was 1 patient.

Question: And the “serious adverse event not related to the study: pneumonia/thrombocytopenia/ANC decreased” value (cohort 3)?
Answer: Its value is 1 patient.

Question: What about the dose limiting toxicity (cohort 3 (400 mg QD), follicular lymphoma subject, first 28-day cycle) of the same compound?
Answer: The dose limiting toxicity was “thrombocytopenia (low platelet count; Grade 4)”.

Question: What about the incidence of anemia (cohort 3, 400 mg QD) of the same compound?
Answer: The incidence of anemia was 1 patient.

Question: What about the incidence of cough (cohort 3, 400 mg QD) of the same compound?
Answer: The incidence of cough was 2 patients.

Question: What about the incidence of diarrhea (cohort 3, 400 mg QD) of the same compound?
Answer: The incidence of diarrhea was 4 patients.

Question: And the incidence of fatigue (cohort 3, 400 mg QD)?
Answer: The incidence of fatigue was 1 patient.

Question: What about the incidence of headache (cohort 3, 400 mg QD) of the same compound?
Answer: Its incidence of headache is 1 patient.

Question: And the “incidence of influenza-like illness” value (cohort 3, 400 mg QD)?
Answer: The value was 1 patient.

Question: And the incidence of insomnia (cohort 3, 400 mg QD)?
Answer: Its incidence of insomnia is 1 patient.

Question: What about the “incidence of jaw pain” value (cohort 3, 400 mg QD) of the same compound?
Answer: Its value is 1 patient.

Question: What about the “incidence of muscle spasm” value (cohort 3, 400 mg QD) of the same compound?
Answer: The value was 1 patient.

Question: And the incidence of neutropenia (cohort 3, 400 mg QD)?
Answer: The incidence of neutropenia was 2 patients.

Question: What about the incidence of pneumonia (cohort 3, 400 mg QD) of the same compound?
Answer: Its incidence of pneumonia is 1 patient.

Question: And the incidence of rash (cohort 3, 400 mg QD)?
Answer: The incidence of rash was 1 patient.

Question: What about the incidence of thrombocytopenia (cohort 3, 400 mg QD) of the same compound?
Answer: Its incidence of thrombocytopenia is 3 patients.

Question: And the “incidence of upper respiratory infection” value (cohort 3, 400 mg QD)?
Answer: The value was 2 patients.

Question: And the “incidence of urinary retention” value (cohort 3, 400 mg QD)?
Answer: Its value is 1 patient.

Question: And the incidence of urticaria (cohort 3, 400 mg QD)?
Answer: The incidence of urticaria was 1 patient.

Question: And the “serious adverse event not related to the study: tonsillar hypertrophy” value (cohort 4)?
Answer: Its value is 1 patient.

Question: What about the “neutropenia (adverse event) leading to discontinuation, after” value (cohort 4 (625 mg QD), CLL patient, after three cycles) of the same compound?
Answer: The value was 85 days.

Question: And the “incidence of abdominal pain” value (cohort 4, 625 mg QD)?
Answer: Its value is 2 patients.

Question: What about the incidence of anemia (cohort 4, 625 mg QD) of the same compound?
Answer: The incidence of anemia was 1 patient.

Question: What about the incidence of dehydration (cohort 4, 625 mg QD) of the same compound?
Answer: Its incidence of dehydration is 2 patients.

Question: What about the incidence of diarrhea (cohort 4, 625 mg QD) of the same compound?
Answer: Its incidence of diarrhea is 5 patients.

Question: And the incidence of dysgeusia (cohort 4, 625 mg QD)?
Answer: The incidence of dysgeusia was 2 patients.

Question: And the incidence of dyspepsia (cohort 4, 625 mg QD)?
Answer: The incidence of dyspepsia was 2 patients.

Question: What about the “incidence of eye pain” value (cohort 4, 625 mg QD) of the same compound?
Answer: The value was 2 patients.

Question: What about the incidence of headache (cohort 4, 625 mg QD) of the same compound?
Answer: Its incidence of headache is 2 patients.

Question: And the “incidence of influenza-like illness” value (cohort 4, 625 mg QD)?
Answer: Its value is 1 patient.

Question: What about the incidence of insomnia (cohort 4, 625 mg QD) of the same compound?
Answer: Its incidence of insomnia is 1 patient.

Question: And the incidence of nausea (cohort 4, 625 mg QD)?
Answer: Its incidence of nausea is 2 patients.

Question: And the incidence of neutropenia (cohort 4, 625 mg QD)?
Answer: Its incidence of neutropenia is 1 patient.

Question: What about the incidence of sinusitis (cohort 4, 625 mg QD) of the same compound?
Answer: The incidence of sinusitis was 1 patient.

Question: And the incidence of thrombocytopenia (cohort 4, 625 mg QD)?
Answer: The incidence of thrombocytopenia was 1 patient.

Question: What about the “incidence of urinary retention” value (cohort 4, 625 mg QD) of the same compound?
Answer: The value was 1 patient.

Question: What about the “incidence of abdominal pain” value [2] of the same compound?
Answer: The value was 1 patient.

Question: What about the incidence of diarrhea [2] of the same compound?
Answer: The incidence of diarrhea was 1 patient.

Question: And the “Grade 3-4 neutropenia” value [3]?
Answer: Its value is 3 patients.

Question: What about the “Grade 3-4 pneumonia” value [3] of the same compound?
Answer: Its value is 2 patients.

Question: And the “Grade 3-4 thrombocytopenia” value [3]?
Answer: The value was 4 patients.

Question: And the “maximum tolerated dose (MTD)” value?
Answer: The value was “not yet been reached”.

Question: What about the “maximum tolerated dose (MTD)” value (listed as API) of the same compound?
Answer: Its value is “not been reached”.

Question: And the “severity of adverse events reported” value (except for decreased ANC (neutropenia), pneumonia and thrombocytopenia)?
Answer: The value was “Grade 1 and 2”.

Question: And the “Grade 3/4 adverse event: neutropenia” value (subjects/21, probably related)?
Answer: The value was 3/21.

Question: And the “Grade 3/4 adverse event: pneumonia” value (subjects/21, probably related)?
Answer: The value was 2/21.

Question: And the “Grade 3/4 adverse event: thrombocytopenia” value (subjects/21, probably related)?
Answer: The value was 4/21.
